Measured values published in patent US20210169985A1, “METHODS FOR TREATING GRAM POSITIVE BACTERIAL INFECTION” (INSERM (Institut National de la Santé et de la Recherche …, priority 2018, published 2021).
“Also recorded” adds a separate entry of the source. *1 amine or outer side, *2 acyl side, *3 side chain or, on linkers, in order; H or OH if unused. Where a SMILES comes first, the peptide text is derived from it. Bridges are numbered along the chain shown (N, C = ends). Roman numbers before positions name the chains, in order. [ ]: non-standard residue; d: D form. Actinocin(9to1) = Cc1c2oc3c(C)ccc(C(=O)[*:1])c3nc-2c(C(=O)[*:2])c(N)c1=O; NMeV = CN[C@H](C(=O)O)C(C)C; Sar = CNCC(=O)O

Experiments:
[1] = system: CXCL1 production in keratinocytes; assay: Cytokine quantification in supernatant of murine primary keratinocytes; format: cell-based; conditions: for effect of inhibitor on hepcidin-induced CXCL1 production: murine primary keratinocytes with 3.6 μM hepcidin, inhibitor added 30 minutes before (FIG. 2C); for CXCL1 levels in the cell culture supernatant: 3 hours; for CXCL1 production by keratinocytes: stimulated 1 or 3 hours vs PBS
Description: Keratinocytes were isolated from the skin of 2-day-old WT or Hepc^Δkerat mice, based on modifications from a previously described protocol^8. In brief, dermis were easily separated from epidermis after floating newborn mice skin on freshly thawed cold trypsin 0.25% (thermo fisher 15050065) overnight at 4° C. with the dermis side down. Cells were isolated in stop trypsin medium (DMEM, high glucose, no glutamine, no calcium (thermo fisher 21068028) containing 20% heat inactivated and Chelex (Bio rad 1421253) treated—FBS, 1% GlutaMAXSupplement (thermo fisher 35050061), 1% Sodium Pyruvate (thermo fisher 11360070), 100 U/ml Penicillin, 100 μg/ml Streptomycin (thermo fisher), 2.5 μg/ml Amphotericin B (Gibco)).
Keratinocytes were obtained by epidermis mechanical dissociation through shaking at 350 rpm for 1 hour at 37° C. The resulting cell suspension was filtered through 100 μm filter, centrifuged at 250 g for 10 min at 4° C., plated on fibronectin and bovine collagen I coated tissue culture plate and incubated at 37° C. in a humidified 5% CO2 atmosphere. The cells were cultured in 0.07 mM calcium medium (low Ca^2+) containing EGF (10 ng/ml) and cholera toxin (10^−10 mol/L). Once confluence reached, cells were switched in 1.2 mM calcium medium (high Ca^2+) in order to assure their differentiation. After three days in high Ca′ cells were differentiated and suitable for different experiments.
(§1) Keratinocytes, previously starved of FBS for 1 hour, were treated with 1 or 10 μg/ml hepcidin (Peptide International) and incubated for different time points. In some experiments, inhibitors were added 30 minutes before hepcidin treatment during FBS starving: brefaldin A (sigma B7651), cycloheximide (sigma C7698), actinomycinD (sigma A1410). The cells were lysed with Tri reagent (sigma) while supernatant cytokines were measured with the V-PLEX Proinflammatory Panel1 kit (Meso Scale Discovery), according to the manufacturer's instruction.

GAS NZ131 [2] = assay: GAS growth inhibition (bacteriostatic) assay; format: cell-based, Group A Streptococcus; conditions: in vitro, overnight growth, hepcidin and LL-37 at the same concentration (FIG. 3A)
Description: (§2) As previously described, 9 GAS NZ131 were grown in Todd Hewitt Broth (THB, Sigma) plus 0.3% yeast extract to early log phase (absorbance at 600 nm, A600=0,2). Bacteria were then diluted in THB to A600=0,001 (≈2×10^5 colony forming units (c.f.u.) m1-1). This bacterial suspension was kept growing overnight at 37° C. in presence of PBS, LL-37, hepcidin (peptide international) or penicillin G (sigma P7794). For antimicrobial killing kinetics, exponential phase GAS (A600=0,4) was exposed to PBS or LL-37 or hepcidin and incubated at 37° C. At different time point serial dilutions of these bacterial suspensions were plated on THA plate for counting surviving c.f.u.

GAS NZ131 [3] = assay: GAS antimicrobial killing kinetics (bactericidal) assay; format: cell-based, Group A Streptococcus; conditions: added to the culture medium at 4 μg/ml (FIG. 3B; legend says 32 μM)
Description: as §2

CXCL1 mRNA = CXCL1 mRNA expression by Q-PCR in primary keratinocytes; format: cell-based, murine; conditions: WT primary keratinocytes, 1 and 3 hours, 360 nM or 3.6 μM (FIG. 2B)
Description: RNA extraction, reverse transcription and quantitative PCR have been performed as previously described {Zumerle, 2014 #46}. All samples were normalized to the threshold cycle value for cyclophilin-A.
as §1

GAS [4] = assay: Therapeutic treatment in GAS induced necrotizing soft tissue infection model; format: in vivo, C57BL6 mice
Description: (§3) A well-established model of necrotizing soft tissue infection was adapted for this study (^7,^9). In brief, 100 μl of a mid logarithmic growth phase (approximately 10^7 c.f.u.) of GAS was mixed with an equal volume of sterile Cytodex beads (Sigma-Aldrich) and injected subcutaneously into the flank of 8- to 12-week-old WT and Hepc^Δkerat14 male littermates, previously shaved (veet hair removal cream). Weight loss and lesion size of mice were daily estimated. After 96 hours mice were sacrificed, skin necrotic ulcers, spleen, and blood (via retro orbital bleeding) were recovered and homogenized in 1:2 mg/μl of sterile PBS. Serial dilutions of tissue homogenate were stretched on THA plates, in order to enumerate living c.f.u.
For therapeutic treatment C57BL6 mice were infected as described above. One day after infection, animals were subcutaneously injected with PBS (control) or 1 μg of hepcidin (peptide international). Mice were treated again at 48 and 72 hours with 500 ng of hepc-25. After 96 hours mice were sacrificed, spleens were taken, homogenized for c.f.u. enumeration.

GAS [5] = assay: CXCL1 rescue experiment in GAS-infected Hepc Δkerat mice; format: in vivo; conditions: subcutaneous 1 μg/mouse daily, four days after GAS injection
Description: as §3
For rescue experiment WT and Hepc^Δkerat littermates were subcutaneously infected with 10^7 c.f.u. of GAS with mock or 1 μg/mouse of rCXCL1 (R&D system, 1395-KC-025/CF). Mice were intralesionally injected again at 24, 48 and 72 h with mock or 1 μg of rCXCL1.

Q: With `C[C@@H]1C[C@@H]([C@H](O)CC2CC(=O)NC(=O)C2)C(=O)[C@@H](C)C1` [Cycloheximide, cycloheximide, reference compound] as the molecule, how does the “effect of inhibitor on hepcidin-induced CXCL1 production” value [1] read?
A: Its value is “significantly reduced”.

Q: With “hepcidin: mature 25-amino acid form of hepcidin (hepc-25), obtained from Peptide International” as the molecule, how does the “bacteriostatic effect against GAS (inhibition of GAS growth)” value (GAS NZ131 [2]) read?
A: The value was “no antimicrobial activity; also recorded: no direct bacteriostatic effect”.

Q: And the “bactericidal activity against GAS (bacterial titers vs control)” value (GAS NZ131 [3])?
A: The value was “no effect”.

Q: And the “production of other tested inflammatory cytokines” value ([1]; murine primary keratinocytes, 360 nM and 3.6 μM hepcidin)?
A: Its value is “not”.

Q: And the “CXCL1 levels in the cell culture supernatant” value ([1]; murine primary keratinocytes, 360 nM)?
A: The value was 150 pg/mL.

Q: What about the “CXCL1 levels in the cell culture supernatant” value ([1]; murine primary keratinocytes, 3.6 μM) of the same molecule?
A: The value was 50 pg/mL.

Q: And the “CXCL1 production by keratinocytes” value ([1]; murine primary keratinocytes)?
A: The value was “dose dependent increase”.

Q: What about the “CXCL1 expression at the mRNA level” value (CXCL1 mRNA) of the same molecule?
A: Its value is “did not increase”.

Q: What about the “treated mice with no systemic bacterial dissemination (bacteria in the spleen)” value (GAS [4]; GAS-infected mice, 96 hours after infection, all control mice disseminated) of the same molecule?
A: Its value is 7 out of 9.

Q: And the “weight (marker of morbidity)” value (GAS [4]; GAS-infected mice, sc 1 μg at 24 h then 500 ng at 48 and 72 h, 96 hours, vs mock)?
A: Its value is “did not loose weight”.

Q: And the “signs of morbidity (rough hair coat, hunched posture)” value (GAS [4]; GAS-infected mice, sc 1 μg at 24 h then 500 ng at 48 and 72 h, vs mock)?
A: Its value is “didn't present any signs of morbidity”.

Q: And the “systemic spread of infection” value (GAS [4]; local injection at the site of infection (FIG. 2F))?
A: The value was “prevents systemic spread of infection”.

Q: With `Cc1c2oc3c(C)ccc(C(=O)N[C@@H]4C(=O)N[C@H](C(C)C)C(=O)N5CCC[C@H]5C(=O)N(C)CC(=O)N(C)[C@@H](C(C)C)C(=O)O[C@@H]4C)c3nc-2c(C(=O)N[C@@H]2C(=O)N[C@H](C(C)C)C(=O)N3CCC[C@H]3C(=O)N(C)CC(=O)N(C)[C@@H](C(C)C)C(=O)O[C@@H]2C)c(N)c1=O` [actinomycin D, actinomycinD, reference compound] (I: T[dV]P[Sar][NMeV] / II: T[dV]P[Sar][NMeV]; ester I:1-I:C, II:1-II:C; linker I:N-II:N via Actinocin(9to1)) as the molecule, how does the “effect of inhibitor on hepcidin-induced CXCL1 production” value [1] read?
A: Its value is “not”.

Q: For LL-37 [reference compound], which “bacteriostatic effect against GAS (inhibition of GAS growth)” value (GAS NZ131 [2]) is on record?
A: The value was “able to prevent the growth of the bacteria”.

Q: And the “bactericidal activity against GAS (bacterial titers vs control)” value (GAS NZ131 [3])?
A: The value was “significant reduction in bacterial titers”.

Q: Which “CXCL1 production by keratinocytes” value ([1]; murine primary keratinocytes) does the source give for “mini-hepcidin: murine mini-hepcidin consisting in the 9 N-terminal amino acids of hepcidin (DTNFPICIF; Hepcidin; UniProt Q9EQ21 59-67, looked up, fragment) [reference compound]” here?
A: Its value is “not able to trigger CXCL1 production”.

Q: And the “CXCL1 production by keratinocytes” value ([1]; murine primary keratinocytes, listed as Mini-hepcidin)?
A: Its value is “does bot promote CXCL1 production”.

B1: CXCL1: rCXCL1 (R&D system, 1395-KC-025/CF), key neutrophil chemokine (protein, UniProt P12850 25-96, looked up)
Growth-regulated alpha protein: APIANELRCQCLQTMAGIHLKNIQSLKVLPSGPHCTQTEVIATLKNGREACLDPEAPLVQKIVQKMLKGVPK
Q: Which “number of bacteria in skin of Hepc Δkerat mice” value (GAS [5]) does the source give for B1 here?
A: Its value is “decreased the number of bacteria at the level of WT mice”.
